Data published in patent publication US20260325540A1 (priority 2023, published 2026).

Target: HCoV-229E 3CL protease (Human coronavirus 229E, UniProt P0C6U2)
Test: FRET based protease assay, HCoV-229E 3CL
Type: biochemical
Conditions: 229E IC50, 6 nM H229E-CoV Chis-3CLpro, 6 μM peptide 1 substrate, 25° C., 1.5 hrs, pH 7.5

HCoV-229E 3CL protease, sequence (P0C6U2 2966-3267): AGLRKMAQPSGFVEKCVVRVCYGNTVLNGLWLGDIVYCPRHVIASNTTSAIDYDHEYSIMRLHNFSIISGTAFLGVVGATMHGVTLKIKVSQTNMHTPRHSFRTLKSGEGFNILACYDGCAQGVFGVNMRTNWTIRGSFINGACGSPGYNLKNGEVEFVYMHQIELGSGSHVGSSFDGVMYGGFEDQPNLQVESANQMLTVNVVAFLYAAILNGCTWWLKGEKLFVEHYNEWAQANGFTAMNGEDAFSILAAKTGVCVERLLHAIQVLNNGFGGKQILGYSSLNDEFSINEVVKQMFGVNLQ

| SMILES | IC50 [µM] |
| --- | --- |
| CC(C)C[C@@H]1NC(=O)CCCC[C@@H]2CNC(=O)[C@@H]2C[C@@H](C=O)NC1=O [Example 1] | 1 to 20 |
| CC(C)C[C@@H]1NC(=O)CCCC[C@H]2CNC(=O)[C@H]2C[C@@H](C=O)NC1=O [Example 2] | 1 to 20 |
| CC(C)C[C@@H]1NC(=O)CCCC[C@H]2CNC(=O)[C@@H]2C[C@@H](C=O)NC1=O [Example 4] | < 0.1 |
| CC(C)C[C@@H]1NC(=O)[C@@H](Cc2ccccc2)CCC[C@@H]2CNC(=O)[C@@H]2C[C@@H](C=O)NC1=O [Example 9] | 0.1 to 1 |
| CC(C)C[C@@H]1NC(=O)[C@@H](Cc2ccccc2)CCC[C@H]2CNC(=O)[C@@H]2C[C@@H](C=O)NC1=O [Example 10] | 1 to 20 |
| CC(C)C[C@@H]1NC(=O)[C@H](Cc2ccccc2)CCC[C@@H]2CNC(=O)[C@@H]2C[C@@H](C=O)NC1=O [Example 11] | 0.1 to 1 |
| CC(C)C[C@@H]1NC(=O)[C@H](Cc2ccccc2)CCC[C@H]2CNC(=O)[C@H]2C[C@@H](C=O)NC1=O [Example 12] | < 0.1 |
| CC(C)C[C@@H]1NC(=O)[C@@H](C2CCCC2)CCC[C@H]2CNC(=O)[C@H]2C[C@@H](C=O)NC1=O [Example 13] | 0.1 to 1 |
| CC(C)C[C@@H]1NC(=O)[C@@H](C2CCCC2)CCC[C@@H]2CNC(=O)[C@@H]2C[C@@H](C=O)NC1=O [Example 14] | 0.1 to 1 |
| CC(C)C[C@@H]1NC(=O)[C@@H](NC(=O)OC(C)(C)C)CCC[C@H]2CNC(=O)[C@H]2C[C@@H](C=O)NC1=O [Example 15] | 0.1 to 1 |
| CC(C)C[C@@H]1NC(=O)[C@@H](NC(=O)OC(C)(C)C)CCC[C@@H]2CNC(=O)[C@@H]2C[C@@H](C=O)NC1=O [Example 16] | 1 to 20 |
| CC(C)C[C@@H]1NC(=O)[C@@H](Cc2ccccc2)CCC[C@H]2CNC(=O)[C@@H]2C[C@@H](C=O)NC1=O [Example 17] | 0.1 to 1 |
| CC(C)C[C@@H]1NC(=O)[C@@H](CC2CCCC2)CCC[C@H]2CNC(=O)[C@@H]2C[C@@H](C=O)NC1=O [Example 18] | 0.1 to 1 |
| CC(C)C[C@@H]1NC(=O)[C@@H](NC(=O)OC(C)(C)C)CCC[C@H]2CNC(=O)[C@@H]2C[C@@H](C=O)NC1=O [Example 19] | < 0.1 |
| CC(C)C[C@@H]1NC(=O)[C@@H](OC(C)(C)C)CCC[C@H]2CNC(=O)[C@@H]2C[C@@H](C=O)NC1=O [Example 20] | 1 to 20 |
| CC(C)C[C@@H]1NC(=O)[C@H](Cc2ccccc2)CCC[C@H]2CNC(=O)[C@@H]2C[C@@H](C=O)NC1=O [Example 21] | < 0.1 |
| CC(C)C[C@@H]1NC(=O)[C@@H](N(C)C(=O)OC(C)(C)C)CCC[C@H]2CNC(=O)[C@@H]2C[C@@H](C#N)NC1=O [Example 22] | 1 to 20 |
| CC(C)C[C@@H]1NC(=O)C(OC2CCCCC2)CCC[C@H]2CNC(=O)[C@@H]2C[C@@H](C#N)NC1=O (stereo partly drawn) [Example 23] | > 20 |
| CC(C)C[C@@H]1NC(=O)CCCC[C@H]2CNC(=O)[C@@H]2C[C@@H](C#N)NC1=O [Example 24] | 0.1 to 1 |
| CC1(C)[C@@H]2[C@H]3C(=O)N[C@H](C#N)C[C@H]4C(=O)NC[C@@H]4CCCCC(=O)N3C[C@@H]21 [Example 25] | 0.1 to 1 |
| N#C[C@@H]1C[C@H]2C(=O)NC[C@@H]2CCCCC(=O)N2C[C@@H]3CCC[C@@H]3[C@H]2C(=O)N1 [Example 26] | 1 to 20 |

| SMILES | IC50 [µM] |
| --- | --- |
| CC(C)C[C@@H]1NC(=O)[C@@H](Cc2ccccc2)CCC[C@H]2CNC(=O)[C@@H]2C[C@@H](C#N)NC1=O [Example 27] | 1 to 20 |
| CC(C)C[C@@H]1NC(=O)[C@@H](C2CCCC2)CCC[C@H]2CNC(=O)[C@@H]2C[C@@H](C#N)NC1=O [Example 28] | 1 to 20 |
| CC(C)C[C@@H]1NC(=O)[C@@H](OC(C)(C)C)CCC[C@H]2CNC(=O)[C@@H]2C[C@@H](C#N)NC1=O [Example 29] | > 20 |
| CC(C)C[C@@H]1NC(=O)CCCCC[C@H]2CNC(=O)[C@H]2C[C@@H](C=O)NC1=O [Example 30] | < 0.1 |
| CC(C)C[C@@H]1NC(=O)CCCCC[C@@H]2CNC(=O)[C@H]2C[C@@H](C=O)NC1=O [Example 31] | 1 to 20 |
| CC(C)C[C@@H]1NC(=O)CCCCC[C@H]2CNC(=O)[C@@H]2C[C@@H](C=O)NC1=O [Example 32] | < 0.1 |
| CC(C)C[C@@H]1NC(=O)CCCCC[C@@H]2CCNC(=O)[C@H]2C[C@@H](C=O)NC1=O [Example 33] | 1 to 20 |
| CC(C)C[C@@H]1NC(=O)CCCCC[C@H]2CCNC(=O)[C@@H]2C[C@@H](C=O)NC1=O [Example 34] | 0.1 to 1 |
| CC(C)C[C@@H]1NC(=O)[C@@H](Cc2ccccc2)CCCC[C@@H]2CNC(=O)[C@@H]2C[C@@H](C=O)NC1=O [Example 35] | 1 to 20 |
| CC(C)C[C@@H]1NC(=O)[C@@H](Cc2ccccc2)CCCC[C@H]2CNC(=O)[C@H]2C[C@@H](C=O)NC1=O [Example 36] | < 0.1 |
| CC(C)C[C@@H]1NC(=O)[C@@H](Cc2ccccc2)CCCC[C@H]2CNC(=O)[C@@H]2C[C@@H](C=O)NC1=O [Example 37] | < 0.1 |
| CC(C)C[C@@H]1NC(=O)CCCCC[C@H]2CNC(=O)[C@H]2C[C@@H](C#N)NC1=O [Example 38] | 0.1 to 1 |
| CC(C)C[C@@H]1NC(=O)[C@@H](Cc2ccccc2)CCCC[C@H]2CNC(=O)[C@H]2C[C@@H](C#N)NC1=O [Example 39] | 0.1 to 1 |
| CC(C)C[C@@H]1NC(=O)[C@@H](Cc2cccc(C(F)(F)F)c2)CCCC[C@H]2CNC(=O)[C@H]2C[C@@H](C#N)NC1=O [Example 40] | 1 to 20 |
| CC(C)C[C@@H]1NC(=O)[C@@H](C2CCCC2)CCCC[C@H]2CNC(=O)[C@H]2C[C@@H](C#N)NC1=O [Example 41] | > 20 |
| CC(C)C[C@@H]1NC(=O)[C@@H](Cc2ccc(F)cc2)CCCC[C@@H]2CNC(=O)[C@@H]2C[C@@H](C#N)NC1=O [Example 42] | 0.1 to 1 |
| CC(C)C[C@@H]1NC(=O)[C@@H](Cc2ccc(F)cc2)CCCC[C@H]2CNC(=O)[C@H]2C[C@@H](C#N)NC1=O [Example 43] | 0.1 to 1 |
| CC(C)C[C@@H]1NC(=O)[C@@H](NC(=O)C(C)(C)C)CCCC[C@H]2CNC(=O)[C@H]2C[C@@H](C#N)NC1=O [Example 44] | < 0.1 |
| CC(C)C[C@@H]1NC(=O)CCCCCC[C@H]2CNC(=O)[C@H]2C[C@@H](C=O)NC1=O [Example 45] | < 0.1 |
| CC(C)C[C@@H]1NC(=O)CCCCCC[C@@H]2CNC(=O)[C@@H]2C[C@@H](C=O)NC1=O [Example 46] | 0.1 to 1 |
| CC(C)C[C@@H]1NC(=O)CCCCCC[C@@H]2CNC(=O)[C@H]2C[C@@H](C=O)NC1=O [Example 47] | 0.1 to 1 |

| SMILES | IC50 [µM] |
| --- | --- |
| CC(C)C[C@@H]1NC(=O)CCCCCC[C@H]2CNC(=O)[C@@H]2C[C@@H](C=O)NC1=O [Example 48] | < 0.1 |
| CC(C)C[C@@H]1NC(=O)[C@@H](Cc2ccccc2)CCCCC[C@@H]2CNC(=O)[C@@H]2C[C@@H](C#N)NC1=O [Example 49] | > 20 |
| CC(C)C[C@@H]1NC(=O)[C@@H](Cc2ccccc2)CCCCC[C@H]2CNC(=O)[C@H]2C[C@@H](C#N)NC1=O [Example 50] | 1 to 20 |
| CC(C)C[C@@H]1NC(=O)CCCCCC[C@@H]2CNCC(=O)[C@H]2C[C@@H](C=O)NC1=O [Example 51] | 1 to 20 |
| CC(C)C[C@@H]1NC(=O)CCCCCC[C@H]2CNCC(=O)[C@@H]2C[C@@H](C=O)NC1=O [Example 52] | 0.1 to 1 |
| CC(C)(C)C[C@@H]1NC(=O)[C@@H](NC(=O)C(C)(C)C)CCCC[C@H]2CNC(=O)[C@H]2C[C@@H](C#N)NC1=O [Example 53] | < 0.1 |
| CC(C)C[C@@H]1NC(=O)[C@@H](NC(=O)C(C)(C)C)CCCC[C@H]2CNC(=O)[C@@H]2C[C@@H](C#N)NC1=O [Example 54] | 1 to 20 |
| CC(C)(C)C(=O)N[C@H]1CCCC[C@H]2CNC(=O)[C@H]2C[C@@H](C#N)NC(=O)[C@@H]2[C@@H]3[C@H](CN2C1=O)C3(C)C [Example 55] | < 0.1 |
| CC(C)C[C@@H]1NC(=O)[C@@H](NC(=O)OC(C)(C)C)CCCC[C@H]2CNC(=O)[C@H]2C[C@@H](C#N)NC1=O [Example 56] | < 0.1 |
| CC(C)C[C@H]1C(=O)N[C@H](C#N)C[C@@H]2C(=O)NC[C@@H]2CCCC[C@H](NC(=O)C(C)(C)C)C(=O)N1C [Example 57] | 0.1 to 1 |
| CC(C)C[C@@H]1NC(=O)[C@@H](NC(=O)C(C)(C)C)CC/C=C/[C@H]2CNC(=O)[C@H]2C[C@@H](C#N)NC1=O [Example 58] | < 0.1 |
| CC(C)C[C@@H]1NC(=O)[C@@H](NC(=O)C(C)(C)C)CC/C=C\[C@H]2CNC(=O)[C@H]2C[C@@H](C#N)NC1=O [Example 59] | 0.1 to 1 |
| CC(C)(C)C[C@@H]1NC(=O)[C@@H](NC(=O)OC(C)(C)C)CCCC[C@H]2CNC(=O)[C@H]2C[C@@H](C#N)NC1=O [Example 60] | < 0.1 |
| CC(C)(C)C(=O)N[C@H]1CC/C=C/[C@H]2CNC(=O)[C@H]2C[C@@H](C#N)NC(=O)[C@@H]2[C@@H]3[C@H](CN2C1=O)C3(C)C [Example 61] | < 0.1 |
| CC1(C)[C@@H]2[C@H]3C(=O)N[C@H](C#N)C[C@@H]4C(=O)NC[C@@H]4CCCC[C@H](NC(=O)C4CC(F)(F)C4)C(=O)N3C[C@@H]21 [Example 62] | < 0.1 |
| CC(C)(C)C(=O)N[C@H]1C/C=C/[C@H]2CNC(=O)[C@H]2C[C@@H](C#N)NC(=O)[C@@H]2[C@@H]3[C@H](CN2C1=O)C3(C)C [Example 63] | < 0.1 |
| CC(C)(C)C(=O)N[C@H]1C/C=C\[C@H]2CNC(=O)[C@H]2C[C@@H](C#N)NC(=O)[C@@H]2[C@@H]3[C@H](CN2C1=O)C3(C)C [Example 64] | 1 to 20 |
| CC(C)(C)C(=O)N[C@H]1CCCC[C@H]2CCNC(=O)[C@@H]2C[C@@H](C#N)NC(=O)[C@@H]2[C@@H]3[C@H](CN2C1=O)C3(C)C [Example 65] | 1 to 20 |
| CC(C)(C)C(=O)N[C@H]1CCC[C@H]2CCNC(=O)[C@@H]2C[C@@H](C#N)NC(=O)[C@@H]2[C@@H]3[C@H](CN2C1=O)C3(C)C [Example 66] | 0.1 to 1 |
| CC(C)(C)C(=O)N[C@H]1CCCC[C@H]2CNC(=O)[C@@H]2C[C@@H](C#N)NC(=O)[C@@H]2[C@@H]3[C@H](CN2C1=O)C3(C)C [Example 67] | 0.1 to 1 |
| CC1(C)[C@@H]2[C@H]3C(=O)N[C@H](C#N)C[C@@H]4C(=O)NC[C@@H]4CCCC[C@H](NC(=O)C4CCC(F)(F)CC4)C(=O)N3C[C@@H]21 [Example 68] | < 0.1 |
